ChEMBL document CHEMBL5036330, “Discovery of 8,9-seco-ent-Kaurane Diterpenoids as Potential Leads for the Treatment of Triple-Negative Breast Cancer” (J Med Chem, 2021)
The source made the active and inactive calls. No cut-off for these calls is given here.

What was measured:
[1] = system: MCF-10A; experiment: Cytotoxicity against human MCF-10A cells assessed as reduction in cell viability incubated for 96 hrs by MTT method; type: cell-based
[2] = system: MDA-MB-468; experiment: Induction of cell cycle arrest in human MDA-MB-468 cells assessed as accumulation of cells at G2 phase at 2 uM measured after 24 hrs by flow cytometry (reference value: 26.5%); type: functional
[3] = system: MDA-MB-468; experiment: Induction of apoptosis in human MDA-MB-468 cells assessed as increase in cleaved PARP at 1 to 5 uM measured after 24 hrs by Western blot analysis; type: functional, cell-based; conditions: dose 1-5 µM
[4] = system: MDA-MB-468; experiment: Antitumor activity against human MDA-MB-468 cells xenografted in NOD/SCID mouse assessed as increase in TUNEL expression in tumor tissue at 5 to 10 mg/kg, ip treated for 33 days by immunohistochemical analysis; type: functional, organism-based; conditions: dose 5-10 mg/kg, time 33.0 day
[5] = system: MDA-MB-468; experiment: Anticancer activity in human MDA-MB-468 cells xenografted mouse model assessed as reduction in tumor volume at 10 mg/kg, ip treated for 33 days; type: functional; conditions: MDA-MB-468, ip, 792 h, time 33 day
[6] = system: MDA-MB-468; experiment: Induction of mitochondrial depolarization in human MDA-MB-468 cells assessed as aggregates at 5 uM in dark by JC10 staining based fluorescence microscopy (reference value: 91.6%); type: functional
[7] = system: MDA-MB-468; experiment: Induction of cell cycle arrest in human MDA-MB-468 cells assessed as accumulation of cells at S phase at 2 uM measured after 24 hrs by flow cytometry (reference value: 46.9%); type: functional
[8] = biological target: Serine/threonine-protein kinase mTOR (Homo sapiens) (UniProt P42345); experiment: Inhibition of mTOR phosphorylation in human MDA-MB-468 cells measured after 24 hrs by Western blot analysis; type: cell-based; conditions: dose 1-5 µM
[9] = system: MDA-MB-468; experiment: Induction of cell cycle arrest in human MDA-MB-468 cells assessed as accumulation of cells at S phase at 5 uM measured after 24 hrs by flow cytometry (reference value: 46.9%); type: functional
[10] = system: MDA-MB-468; experiment: Induction of apoptosis in human MDA-MB-468 cells assessed as late apoptotic cells at 5 uM measured after 24 hrs by Annexin V/Propidium iodide stain based Flow cytometry (reference value: 3.98%); type: functional
[11] = system: MDA-MB-468; experiment: Induction of mitochondrial depolarization in human MDA-MB-468 cells assessed as monomers at 5 uM in dark by JC10 staining based fluorescence microscopy (reference value: 8.4%); type: functional
[12] = Toxicity in NOD/SCID mouse assessed as cytotoxicity in heart at 10 mg/kg, ip treated for 33 days by H&E staining analysis; type: organism-based; conditions: in vivo, 792 h, time 33 day
[13] = system: MDA-MB-231; experiment: Induction of mitochondrial depolarization in human MDA-MB-231 cells assessed as monomers at 2 uM in dark by JC10 staining based fluorescence microscopy (reference value: 5.6%); type: functional
[14] = Toxicity in NOD/SCID mouse assessed as cytotoxicity in kidney at 10 mg/kg, ip treated for 33 days by H&E staining analysis; type: organism-based; conditions: in vivo, 792 h, time 33 day
[15] = system: MDA-MB-468; experiment: Induction of apoptosis in human MDA-MB-468 cells assessed as early apoptotic cells at 1 uM measured after 24 hrs by Annexin V/Propidium iodide stain based Flow cytometry (reference value: 7.98%); type: functional
[16] = system: MDA-MB-231; experiment: Antitumor activity against human MDA-MB-231 cells xenografted in NOD/SCID mouse assessed as decrease in CD31 expression in tumor tissue at 5 to 10 mg/kg, ip treated for 33 days by immunohistochemical analysis; type: functional, organism-based; conditions: dose 5-10 mg/kg, time 33.0 day
[17] = system: MDA-MB-231; experiment: Induction of autophagy in human MDA-MB-231 cells assessed as increase in ATG5 expression at 1 to 5 uM incubated for 24 hrs by Western blot analysis; type: functional, cell-based; conditions: dose 1-5 µM
[18] = system: MDA-MB-231; experiment: Antitumor activity against human MDA-MB-231 cells xenografted in NOD/SCID mouse assessed as increase in LC3B expression in tumor tissue at 5 to 10 mg/kg, ip treated for 33 days by immunohistochemical analysis; type: functional, organism-based; conditions: dose 5-10 mg/kg, time 33.0 day
[19] = biological target: Serine/threonine-protein kinase mTOR (Homo sapiens) (UniProt P42345); experiment: Inhibition of mTOR phosphorylation in human MDA-MB-231 cells measured after 24 hrs by Western blot analysis; type: cell-based; conditions: dose 1-5 µM
[20] = system: L02; experiment: Cytotoxicity against human L02 cells assessed as reduction in cell viability incubated for 96 hrs by MTT method; type: cell-based; conditions: L02, 96 h
[21] = system: MDA-MB-231; experiment: Antitumor activity against human MDA-MB-231 cells xenografted in NOD/SCID mouse assessed as decrease in Ki67 expression in tumor tissue at 5 to 10 mg/kg, ip treated for 33 days by immunohistochemical analysis; type: functional, organism-based; conditions: dose 5-10 mg/kg, time 33.0 day
[22] = system: MDA-MB-468; experiment: Antiproliferative activity against human MDA-MB-468 cells assessed as supression of long term proliferative capacity measured for 2 weeks by Colony formation assay; type: functional, cell-based; conditions: dose 0.05-0.2 µM
[23] = system: MDA-MB-231; experiment: Antitumor activity against human MDA-MB-231 cells xenografted in NOD/SCID mouse assessed as increase in TUNEL expression in tumor tissue at 5 to 10 mg/kg, ip treated for 33 days by immunohistochemical analysis; type: functional, organism-based; conditions: dose 5-10 mg/kg, time 33.0 day
[24] = system: MDA-MB-231; experiment: Effect on Akt expression in human MDA-MB-231 cells measured at 1 to 5 uM after 24 hrs by Western blot analysis; type: functional, cell-based; conditions: dose 1-5 µM
[25] = system: MDA-MB-468; experiment: Antitumor activity against human MDA-MB-468 cells xenografted in NOD/SCID mouse assessed as decrease in CD31 expression in tumor tissue at 5 to 10 mg/kg, ip treated for 33 days by immunohistochemical analysis; type: functional, organism-based; conditions: dose 5-10 mg/kg, time 33.0 day
[26] = system: MDA-MB-468; experiment: Induction of apoptosis in human MDA-MB-468 cells assessed as early apoptotic cells at 5 uM measured after 24 hrs by Annexin V/Propidium iodide stain based Flow cytometry (reference value: 7.98%); type: functional
[27] = system: MDA-MB-231; experiment: Antiinvasive activity against in human MDA-MB-231 cells assessed as reduction in MMP2 expression measured upto 72 hrs by Western blot analysis; type: functional, cell-based; conditions: dose 0.1-0.2 µM, time hrs <=72
[28] = system: MDA-MB-468; experiment: Induction of apoptosis in human MDA-MB-468 cells assessed as late apoptotic cells at 1 uM measured after 24 hrs by Annexin V/Propidium iodide stain based Flow cytometry (reference value: 3.98%); type: functional
[29] = Toxicity in NOD/SCID mouse assessed as cytotoxicity in spleen at 10 mg/kg, ip treated for 33 days by H&E staining analysis; type: organism-based; conditions: in vivo, 792 h, time 33 day
[30] = system: MDA-MB-468; experiment: Induction of autophagy in human MDA-MB-468 cells assessed as increase in ATG5 expression at 1 to 5 uM incubated for 24 hrs by Western blot analysis; type: functional, cell-based; conditions: dose 1-5 µM
[31] = system: MDA-MB-468; experiment: Anticancer activity in human MDA-MB-468 cells xenografted mouse model assessed as reduction in tumor weight at 10 mg/kg, ip treated for 33 days; type: functional; conditions: MDA-MB-468, ip, 792 h, time 33 day
[32] = system: MDA-MB-231; experiment: Induction of apoptosis in human MDA-MB-231 cells assessed as early apoptotic cells at 2 uM measured after 24 hrs by Annexin V/Propidium iodide stain based Flow cytometry (reference value: 3.34%); type: functional
[33] = Selectivity index, ratio of IC50 for human LO2 cells to IC50 for human MBA-MB-231 cells; type: functional
[34] = system: MDA-MB-468; experiment: Induction of cell cycle arrest in human MDA-MB-468 cells assessed as accumulation of cells at G1 phase at 5 uM measured after 24 hrs by flow cytometry (reference value: 26.6%); type: functional
[35] = system: MDA-MB-231; experiment: Effect on mTOR expression in human MDA-MB-231 cells measured at 1 to 5 uM after 24 hrs by Western blot analysis; type: functional, cell-based; conditions: dose 1-5 µM

C=C1C(=O)C2=C[C@H]1CCC(=O)[C@]1(C)[C@H](O)CCC(C)(C)[C@H]1C[C@H]2O
IC50 [1]: 1050 nM
Activity [2]: 58.1%
Activity [3]: Active
Activity [4]: Active
inhibition in vivo at 10 mg/kg [5]: 44.8%
Activity [6]: 13.3%
Activity [7]: 27.6%
inhibition [8]: Active
Activity [9]: 24.3%
Activity [10]: 25.9%
Activity [11]: 86.6%
Activity [12]: Non-Toxic
Activity [13]: 43.1%
Activity [14]: Non-Toxic
Activity [15]: 29.7%
Activity [16]: Active
Activity [17]: Active
Activity [18]: Active
inhibition [19]: Active
IC50 [20]: > 5000 nM
Activity [21]: Active
Activity [22]: Active
Activity [23]: Active
Activity [24]: inactive
Activity [25]: Active
Activity [26]: 21%
Activity [27]: Active
Activity [28]: 10.1%
Activity [29]: Non-Toxic
Activity [30]: Active
inhibition in vivo at 10 mg/kg [31]: 58%
Activity [32]: 8.05%
Selectivity Index [33]: >66.7
Activity [34]: 16.1%
Activity [35]: inactive
